Assay results as given in publication PMC5554220, “A Novel Aldosterone Antagonist Limits Renal Injury in 5/6 Nephrectomy” (Scientific Reports, 2017).

How the values were obtained:
[1] = Pharmacokinetics (data not shown)
[2] = molecular target: T1, human androgen receptor (hAR) (Homo sapiens, UniProt P10275, DEL79-80/DUP470-473/R9G); test: Radioligand binding, [3H]mibolerone, hAR expressed in Sf9; conditions: hAR expressed in Sf9; [3H]mibolerone 0.3 nM; read-out: Mean Ki ± SEM hAR
T1 construct: made in house; host or cells: Sf9 insect cells (baculovirus)
T1 sequence (P10275 with tags, fused parts or gaps R9G/DEL79-80/DUP470-473): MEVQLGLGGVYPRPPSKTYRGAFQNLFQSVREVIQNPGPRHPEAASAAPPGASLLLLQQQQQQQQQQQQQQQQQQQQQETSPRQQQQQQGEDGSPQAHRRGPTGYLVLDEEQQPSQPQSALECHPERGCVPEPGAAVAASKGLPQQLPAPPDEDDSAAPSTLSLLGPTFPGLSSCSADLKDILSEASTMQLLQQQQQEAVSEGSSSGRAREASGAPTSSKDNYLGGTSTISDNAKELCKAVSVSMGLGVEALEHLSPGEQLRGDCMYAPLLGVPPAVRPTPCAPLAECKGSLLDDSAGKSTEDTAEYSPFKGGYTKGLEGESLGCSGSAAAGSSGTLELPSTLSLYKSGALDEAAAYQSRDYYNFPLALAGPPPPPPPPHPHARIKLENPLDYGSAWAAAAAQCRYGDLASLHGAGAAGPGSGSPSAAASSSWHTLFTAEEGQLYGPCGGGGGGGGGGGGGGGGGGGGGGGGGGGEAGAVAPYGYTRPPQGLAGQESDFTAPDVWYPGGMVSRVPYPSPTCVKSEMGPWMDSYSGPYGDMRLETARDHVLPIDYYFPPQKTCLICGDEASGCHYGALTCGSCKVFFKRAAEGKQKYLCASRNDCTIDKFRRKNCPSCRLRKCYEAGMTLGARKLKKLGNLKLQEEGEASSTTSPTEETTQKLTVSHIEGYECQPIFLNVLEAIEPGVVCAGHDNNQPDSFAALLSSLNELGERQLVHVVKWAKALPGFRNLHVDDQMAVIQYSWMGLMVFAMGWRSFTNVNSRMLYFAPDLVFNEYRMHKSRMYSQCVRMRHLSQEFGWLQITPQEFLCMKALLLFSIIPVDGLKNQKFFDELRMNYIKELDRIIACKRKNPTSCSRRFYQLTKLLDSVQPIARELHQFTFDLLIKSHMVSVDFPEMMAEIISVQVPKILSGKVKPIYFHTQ
Description: Full-length human mineralocorticoid receptor (hMR) to be used in radioligand binding was isolated from a human kidney cDNA library (Clontech, Palo Alto, CA). […] The hMR, hPR, and hAR cDNAs were subcloned in the eukaryotic expression vector pcDNA3. Methods for the expression of functionally active hMR, hAR and hPR utilizing the baculovirus expression system were described previously, [31].
Affinity of ligands to the soluble receptor was determined using vacuum filtration methods, preparing soluble receptors in 96-well Falcon polystyrene plates (BD Biosciences, Bedford, MA) in a total volume of 250 μl. […] Binding studies for ligands for hPR and hAR were determined using [1,2,6,7-3H(N)] […] Specific binding of 3H-progesterone for hPR and 3H-mibolerone for hAR was determined in the presence and absence of 1 μM mifepristone. Inhibition constants (Ki), were determined either from the Cheng-Prusoff equation[32], or directly using non-linear regression curve fitting to a three-parameter one-site competitive equation. […] Protein was measured using colorimetric detection and quantification of bicinchoninic acid (BCA Protein Assay, Pierce, Rockford, IL). […] Concentration response curves were analyzed statistically using a four-parameter logistic equation (Hill equation for sigmoid curves). […]

[3] = Permeability (data not shown); type: in vitro ADME
Nx rats = test: Preliminary experiments to determine the doses of Eple and Ly; type: in vivo
Description: Preliminary experiments were performed to exclude the possibility that any differences between Eple and Ly, both in monotherapy and as add-ons to L, were simply due to the use of inadequately low doses of either compound. In the first set of experiments, Nx rats received Eple at the recommended dose of 85 mg/kg, and at 150 mg/kg, higher than in most studies reported so far. […] Other Nx rats received Ly at either 12 mg/kg (the recommended dose) or 20 mg/kg. […] Based on these preliminary results, we set the doses of Eple and Ly at 150 mg/kg and 20 mg/kg, respectively.

With `O=c1[nH]c2ccc(/C=C3\c4ccc(F)cc4COc4cc(F)ccc43)cc2[nH]1` [Ly] the Pharmacokinetics properties [1] was “good pharmacokinetics properties”, the Ki [2] was 0.323 ± 0.101 µM and the Permeability [3] was “good permeability”. The “Maximal nontoxic dose, defined by stunting of body growth” value (Nx rats) was 20 mg/kg, the “Dose-response effect on the parameters studied” value (Nx rats; Ly 12 mg/kg vs 20 mg/kg) was “A dose-response effect was observed for most parameters” and the Body growth (Nx rats; Ly 30 mg/kg) was “severe growth stunting”.
